Source: patent US9399646B2 (Genentech, Inc., priority 2010, dated 2016)

Experiments:
[1] = molecular target: T1, ER-α in MCF-7 cells (Homo sapiens, UniProt P03372); experiment: Breast cancer cell ER-α in cell western assay (SP1); assay type: cell-based; parameters: endogenous in cells; host or cells: MCF-7; conditions: 4 or 24 hr post compound addition; for Emax: MCF7, SP1 antibody, read-out: ER-α In Cell Western Assay (SP1) Max Response; for DC50: SP1 antibody, read-out: ER-α In Cell Western Assay (SP1) IC50
T1 sequence (P03372 1-595): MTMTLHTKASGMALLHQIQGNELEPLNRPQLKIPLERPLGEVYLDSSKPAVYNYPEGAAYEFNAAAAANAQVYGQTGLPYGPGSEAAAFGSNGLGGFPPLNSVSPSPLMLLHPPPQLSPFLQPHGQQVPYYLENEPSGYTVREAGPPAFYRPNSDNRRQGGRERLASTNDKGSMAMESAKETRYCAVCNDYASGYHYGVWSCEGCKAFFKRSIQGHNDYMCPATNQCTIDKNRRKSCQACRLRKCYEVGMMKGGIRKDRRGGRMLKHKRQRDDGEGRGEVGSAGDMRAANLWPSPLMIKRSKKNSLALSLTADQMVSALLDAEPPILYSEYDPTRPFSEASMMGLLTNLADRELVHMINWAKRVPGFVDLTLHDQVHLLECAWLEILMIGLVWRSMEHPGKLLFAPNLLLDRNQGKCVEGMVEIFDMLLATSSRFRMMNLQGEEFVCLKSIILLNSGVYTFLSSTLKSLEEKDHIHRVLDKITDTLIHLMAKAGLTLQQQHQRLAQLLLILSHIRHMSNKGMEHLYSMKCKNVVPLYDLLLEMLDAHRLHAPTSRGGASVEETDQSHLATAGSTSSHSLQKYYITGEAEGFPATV
Procedure, shortened: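 Percent remaining ER: SP1 immunofluorescence normalized to DRAQ5 nuclear stain, compared with untreated controls. Treatment lasted 4 or 24 hr across 0.3–0.000003 μM final in MCF-7.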

[2] = test system: MCF-7 cells; experiment: Breast cancer cell viability assay (CellTiter-Glo, 5 days); assay type: cell-based; conditions: 5 days' compound exposure; for IC50: Homo sapiens, MCF7, 120 h
Procedure, shortened: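 Eleven-point semilog compound series, final 0.3-0.000003 μM, added to overnight-adhered MCF-7 cells (320/well; RPMI, 10% FBS, 20 mM HEPES) for 5 days. Viability read by CellTiter-Glo luminescence, background from medium without cells subtracted, expressed relative to untreated cells.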

Structure (SMILES)	Emax [1]	DC50 [1]	IC50 [2]	MCF7 Viability Assay Max Response [2]
CC/C(=C(/c1ccc(/C=C/C(=O)O)cc1)c1coc2ccccc12)c1ccc(F)cc1Cl [Compound 170, (E)-3-(4-((E)-1-(Benzofuran-3-yl)-2-(2-chloro-4-fluorophenyl)but-1-en-1-yl)phenyl)acrylic acid]	≥ 40%	≤ 0.1 µM	≤ 0.1 µM	++ (++ = a single % value ≧ 40%)
CCOC(=O)/C=C/c1ccc(/C(=C(/CC)c2ccccc2)c2ccc3cn[nH]c3c2)cc1 [Compound 172, (E)-Ethyl 3-(4-((E)-1-(1H-indazol-6-yl)-2-phenylbut-1-en-1-yl)phenyl)acrylate]	≥ 40%	> 0.1 µM	≤ 0.1 µM	+ (+ = a single % value < 40%)
CCOC(=O)/C=C/c1ccc(/C(=C(/CC)c2ccccc2)c2cccc3[nH]ncc23)cc1 [Compound 175, (E)-Ethyl 3-(4-((E)-1-(1H-Indazol-4-yl)-2-phenylbut-1-en-1-yl)phenyl)acrylate]	≥ 40%	≤ 0.1 µM	≤ 0.1 µM	+ (+ = a single % value < 40%)
CC/C(=C(/c1ccc2cc(/C=C/C(=O)O)ccc2c1)c1ccc2[nH]ncc2c1)c1ccccc1 [Compound 180, (E)-3-(6-((E)-1-(1H-Indazol-5-yl)-2-phenylbut-1-en-1-yl)naphthalen-2-yl)acrylic acid]	≥ 40%	≤ 0.1 µM	≤ 0.1 µM	++ (++ = a single % value ≧ 40%)
CC/C(=C(/c1csc(/C=C/C(=O)O)c1)c1ccc2[nH]ncc2c1)c1ccccc1 [Compound 186, (E)-3-(4-((Z)-1-(1H-Indazol-5-yl)-2-phenylbut-1-en-1-yl)thiophen-2-yl)acrylic acid]	≥ 40%	–	> 0.1 µM	+ (+ = a single % value < 40%)

Further lines, with some results ahead:

Emax [1]	DC50 [1]	IC50 [2]	Structure (SMILES)	MCF7 Viability Assay Max Response [2]
≥ 40%	–	> 0.1 µM	CC/C(=C(/c1ccc(/C=C/C(=O)O)nc1)c1ccc2[nH]ncc2c1)c1ccccc1 [Compound 189, (E)-3-(5-((Z)-1-(1H-Indazol-5-yl)-2-phenylbut-1-en-1-yl)pyridin-2-yl)acrylic acid]	++ (++ = a single % value ≧ 40%)
≥ 40%	> 0.1 µM	> 0.1 µM	CC/C(=C(/c1ccc(OCC(=O)O)cc1)c1ccc2[nH]ncc2c1)c1ccccc1 [Compound 190, (E)-2-(4-(1-(1H-Indazol-5-yl)-2-phenylbut-1-en-1-yl)phenoxy)acetic acid]	++ (++ = a single % value ≧ 40%)
≥ 40%	≤ 0.1 µM	≤ 0.1 µM	CC/C(=C(/c1ccc(OCCN2CCCC2)cc1)c1ccc2[nH]ncc2c1)c1ccccc1 [Compound 191, (E)-5-(2-Phenyl-1-(4-(2-(pyrrolidin-1-yl)ethoxy)phenyl)but-1-en-1-yl)-1H-indazole]	++ (++ = a single % value ≧ 40%)
≥ 40%	> 0.1 µM	> 0.1 µM	CC/C(=C(/c1ccc2c(c1)CC(C(=O)O)C2)c1ccc2[nH]ncc2c1)c1ccccc1 (centres unmarked) [Compound 192, (E)-5-(1-(1H-Indazol-5-yl)-2-phenylbut-1-en-1-yl)-2,3-dihydro-1H-indene-2-carboxylic acid]	++ (++ = a single % value ≧ 40%)
≥ 40%	> 0.1 µM	≤ 0.1 µM	CCOC(=O)/C=C/c1ccc(/C(=C(/CC)c2ccc(F)cc2Cl)c2ccc3c(cnn3C3CCCCO3)c2)cc1 (centres unmarked) [Compound 193, (E)-Ethyl 3-(4-((E)-2-(2-chloro-4-fluorophenyl)-1-(1-(tetrahydro-2H-pyran-2-yl)-1H-indazol-5-yl)but-1-en-1-yl)phenyl)acrylate]	+ (+ = a single % value < 40%)
≥ 40%	–	≤ 0.1 µM	CC/C(=C(/c1ccc(/C=C/C(=O)O)cc1)c1ccc2[nH]ncc2c1)c1ccncc1Cl [Compound 204, (E)-3-(4-((E)-2-(3-Chloropyridin-4-yl)-1-(1H-indazol-5-yl)but-1-en-1-yl)phenyl)acrylic acid]	++ (++ = a single % value ≧ 40%)
